Test results from US8252832B2, “Kinesin inhibitors as cancer therapeutics” (Novartis AG, priority 2007, dated 2012).
Marks after values point to notes of the source that are not given here.

Legend:
HCT15 tumor xenograft = HCT15 tumor xenograft model, tumor response; assay type: in vivo, mouse
Description: Routine animal care and assurance of welfare were as described above.
Human HCT15 colon carcinoma cells were obtained from the National Cancer Institute's DCTD Tumor Repository (catalog #NCI-502711, Rockville, Md.). HCT15 cells were grown in RPMI 1640 with 2 mM L-glutamine (Mediatech Inc., catalog #15-040-CV) supplemented with 10% fetal bovine serum (JRH Biosciences, catalog #12003-1000M). The cells were tested to be free of Mycoplasma sp. and murine viruses in the IMPACT1 PCR assay panel (RADIL, University of Missouri, Columbia, Mo.)
These cells were grown as adherent cultures, maintained at 37° C. in a humidified atmosphere containing 5% carbon dioxide. Cells were cultured for fewer than 10 passages prior to use. Cells were harvested at 95% confluency, and centrifuged at ˜800×g for 5 minutes at 4° C. and then resuspended in a 1:1 ratio of HBSS (Mediatech Inc., catalog #21-021-CV) plus Matrigel™ at a concentration of 50 million cells/mL for implantation subcutaneously (injection volume of 0.2 mL).
Treatments for the efficacy studies were initiated 10 days following tumor cell implantation when tumors were approximately 300 mm^3. Compound IIa and SB-715992 were administered intravenously (i.v.) via the tail vein in a volume of 8 mL/kg at the doses indicated. Paclitaxel was administered intraperitoneally (i.p.) in a volume of 16 mL/kg at 30 mg/kg.
Tumor volume was calculated as (L×W2)/2. […] Data was analyzed as described above.

[1] = test system: panel of cell lines derived from solid tumors; experiment: Solid tumor cell line panel, fraction of surviving cells after 72 hours; assay type: cell-based
Description: Compound IIa was tested against a panel of cell lines derived from solid tumors as described in See also McDermott, U., Sharma, S. V., Dowell, L., Greninger, P., Montagut, C., Lamb, J., Archibald, H., Raudales, R., Tam, A., Lee, D., Rothenberg, S. M., Supko, J. G., Sordella, R., Ulkus, L. E., Iafrate, A. J., Maheswaran, S., Njauw, C. N., Tsao, H., Drew, L., Hanke, J. H., Ma, X. J., Erlander, M. G., Gray, N. S., Haber, D. A., and Settleman, J. (2007), Identification of genotype-correlated sensitivity to selective kinase inhibitors by using high-throughput tumor cell line profiling. Proc. Natl. Acad. Sci. U.S. A 104, 19936-19941 (2007).) Cells were treated with the compound for 72 hours and the fraction of surviving cells, as compared to an untreated control, was reported. Table 17 lists the name of the cell line, the organ of origin, the fraction of surviving cells at the three concentrations tested (0.2 nM, 2.0 nM and 20 nM) and a sensitivity score. The sensitivity score was from 5 (most sensitive) to 1 (least sensitive) and the scoring was as follows: 5=surviving fraction≦0.2 at 0.2 nM; 4=0.2<surviving fraction≦0.5 at 0.2 nM; 3=surviving fraction>0.5 at 0.2 nM and ≦0.5 at 2.0 nM; 2=surviving fraction>0.5 at 2.0 nM and ≦0.5 at 20 nM; 1=surviving fraction>0.5 at 20 nM.

[2] = MV4; 11-luc disseminated disease model, host response; assay type: in vivo, mouse; settings: q4d × 3, i.v
Description: The efficacy study in the disseminated disease model was performed using immunodeficient NOD-SCID female mice approximately 7-8 weeks old (Jackson Laboratories, Bar Harbor, Me.). […] Routine animal care and assurance of welfare were as described above. […] Doses were adjusted to each animal's body weight. […] Approximately 10 minutes prior to imaging, mice were injected i.p. with 150 mg/kg luciferin (Xenogen Corporation, Alameda, Calif.), followed by anesthetization with isoflurane. Photon emission was measured using a charge coupled device camera in the IVIS imaging system (Xenogen Corporation). Briefly, a gray-scale image of the mice was captured, followed by an overlay of a bioluminescence map representing the spatial distribution of photons detected from cleaved luciferin in the cancer cells expressing luciferase. Signal intensity was quantified using a customized version of the IGOR Pro version 4.09A Software (WaveMetrics, Inc., Lake Oswego, Oreg.) called Living Image version 2.50.2 (Xenogen). The sum of all detected photon counts from the dorsal+ventral views was determined. Bioluminescence of cancer cells in the animals was measured by imaging on designated days until the first mice developed hind limb paralysis due to disease burden, the main end point for when to humanely euthanize mice. The day of euthanasia for each mouse was recorded and the remaining percentage of mice surviving was plotted over time (Kaplan-Meier survival analysis). P values were calculated using the log-rank test (GraphPad Prism 4.0 software) to assess differences between treated and control groups (p<0.05 was considered significant). […] Data analysis was performed as described above.

[3] = Subcutaneous KMS-11-luc tumor xenograft model, host response; assay type: in vivo, mouse
Description: Experiments were performed using immunodeficient SCID-Beige female mice approximately 7-8 weeks old (Charles River Laboratories, Wilmington, Mass.). […] Routine animal care and assurance of welfare were as described above.
Compound IIa and SB-715992 (free base) were formulated in 20% Captisol for a dose volume of 8 mL/kg. Doses were adjusted to each animal's body weight.
For the efficacy evaluation in the subcutaneous tumor model, 10 million cells combined in a 1:1 mixture of HBSS and Matrigel™ were injected subcutaneously in the right flank in a total volume of […]. […] Tumor volume was calculated as (L×W2)/2. […] Data analysis was as described above.

Compound: CC(C)(C)[C@H](c1nc(-c2cc(F)ccc2F)cn1Cc1ccccc1)N(CC[C@H](N)CF)C(=O)CO [Compound IIa]
- Δ Tumor volume, Day 15 (HCT15 tumor xenograft; 1.25 mg/kg, q4d × 3, i.v): 671 ± 172 mm^3
- ΔT/ΔC, Day 15 (%) (HCT15 tumor xenograft; 1.25 mg/kg, q4d × 3, i.v): 60%
- Δ Tumor volume, Day 15 (HCT15 tumor xenograft; 2.5 mg/kg, q4d × 3, i.v): 735 ± 159 mm^3
- ΔT/ΔC, Day 15 (%) (HCT15 tumor xenograft; 2.5 mg/kg, q4d × 3, i.v): 65%
- Δ Tumor volume, Day 15 (HCT15 tumor xenograft; 4.0 mg/kg, q4d × 3, i.v): 99 ± 78 mm^3
- ΔT/ΔC, Day 15 (%) (HCT15 tumor xenograft; 4.0 mg/kg, q4d × 3, i.v, listed as COMPOUND IIa): 26* %
- ΔT/ΔC, Day 15 (%) (HCT15 tumor xenograft; 4.0 mg/kg, q4d × 3, i.v, listed as compound IIa): 26%
- average sensitivity score ([1]; brain): 3.21
- average sensitivity score ([1]; cervix): 3.00
- average sensitivity score ([1]; ovary): 3.38
- average sensitivity score ([1]; skin): 3.02
- average sensitivity score ([1]; stomach): 3.32
- average sensitivity score ([1]; thyroid): 3.00
- % Max. Δ body weight, (Day) ([2]; 0.25 mg/kg, D5): 5.6 ± 1.3%
- Max. Δ body weight (g) (Day) ([2]; 0.25 mg/kg, D5): 1.1 ± 0.44 g
- % Max. Δ body weight, (Day) ([2]; 0.5 mg/kg, D10): −2.6 ± 2.3%
- Max. Δ body weight (g) (Day) ([2]; 0.5 mg/kg, D10): -0.57 ± 0.45 g
- % Max. Δ body weight, (Day) ([2]; 1 mg/kg, D10): −4.2 ± 1.7%
- Max. Δ body weight (g) (Day) ([2]; 1 mg/kg, D10): -0.77 ± 0.32 g
- Survival (alive/total) ([3]; 0.25 mg/kg, Q4d × 3, i.v): 9/9
- Survival (alive/total) ([3]; 0.5 mg/kg, Q4d × 3, i.v): 9/9
- Survival (alive/total) ([3]; 1 mg/kg, Q4d × 3, i.v): 8/9

Compound: CC(=O)O[C@H]1C(=O)[C@@]2(C)[C@H]([C@H](OC(=O)c3ccccc3)[C@]3(O)C[C@H](OC(=O)[C@H](O)[C@@H](NC(=O)c4ccccc4)c4ccccc4)C(C)=C1C3(C)C)[C@]1(OC(C)=O)CO[C@@H]1C[C@@H]2O [Paclitaxel, reference compound]
- Δ Tumor volume, Day 15 (HCT15 tumor xenograft; 30 mg/kg, Q4d × 3, i.p.): 703 ± 198 mm^3
- ΔT/ΔC, Day 15 (%) (HCT15 tumor xenograft; 30 mg/kg, Q4d × 3, i.p.): 104%
- Survival (alive/total) ([3]; 30 mg/kg, Q4d × 3, i.p.): 9/9

Compound: Cc1ccc(C(=O)N(CCCN)[C@@H](c2nc3cc(Cl)ccc3c(=O)n2Cc2ccccc2)C(C)C)cc1 [SB-715992, Ispinesib, reference compound]
- Δ Tumor volume, Day 15 (HCT15 tumor xenograft; 7.5 mg/kg, q4d × 3, i.v): 647 ± 164 mm^3
- ΔT/ΔC, Day 15 (%) (HCT15 tumor xenograft; 7.5 mg/kg, q4d × 3, i.v): 87%
- Δ Tumor volume, Day 15 (HCT15 tumor xenograft; 15 mg/kg, q4d × 3, i.v.): 491 ± 109 mm^3
- ΔT/ΔC, Day 15 (%) (HCT15 tumor xenograft; 15 mg/kg, q4d × 3, i.v.): 67%
- Survival (alive/total) ([3]; 7.5 mg/kg, Q4d × 3, i.v.): 9/9
- Max. Δ body weight (Day) ([3]; 7.5 mg/kg, Q4d × 3, i.v., D10): -0.96 ± 0.31 g
- Max. Δ body weight (Day) (%) ([3]; 7.5 mg/kg, Q4d × 3, i.v., D10): −4.8 ± 1.93%
